This passage reports EC50 results from patent USRE44613E1, “N-substituted glycine derivatives: hydroxylase inhibitors” (GlaxoSmithKline LLC, priority 2007, dated 2013).

Where only a bound is given, the exact number is not on record here.

In the experiment the test system is Epo protein produced by Hep3B cell line. The experiment is described as follows: Epo protein produced by Hep3B cell line using ELISA method. The experiment is classed as cell-based. The conditions noted are these: Homo sapiens; Hep3B cells, 48 hours incubation, DMEM without serum; maximum concentration tested 100 micromolar; range stated jointly for ELISA and AlphaLISA. The protocol: Measure Epo Protein Produced by Hep3B Cell Line Using ELISA Method.
Hep3B cells obtained from the American Type Culture Collection (ATCC) are seeded at 2×10^4 cells/well in Dulbecco's Modified Eagle Medium (DMEM)+10% FBS in 96-well plates. Cells are incubated at 37 deg C./5% CO2/90% humidity (standard cell culture incubation conditions). After overnight adherence, medium is removed and replaced with DMEM without serum containing test compound or DMSO negative control. Following 48 hours incubation, cell culture medium is collected and assayed by ELISA to quantitate Epo protein.

By EC50 is commonly meant the concentration needed to bring the measured effect to its halfway point. Low values mean higher potency in that assay, high ones lower potency in that assay. `CC(C)(C)c1ccc(Cn2nc(-c3ccc(C(C)(C)C)cc3)c(O)c(C(=O)NCC(=O)O)c2=O)cc1` [Example 26, N-[(6-[4-(1,1-Dimethylethyl)phenyl]-2-{[4-(1,1-dimethylethyl)phenyl]methyl}-5-hydroxy-3-oxo-2,3-dihydro-4-pyridazinyl)carbonyl]glycine] registered an EC50 of more than 100 µM.
